The target in this assay is Carbonic anhydrase 2 (Homo sapiens, UniProt P00918).

pKi: −log10 of the molar value. Where only a bound is given, the exact number is not on record here.

For the molecule `[F-].[Na+]` [SODIUM FLUORIDE], the pKi was under 0.70.

By pKi is commonly meant the negative decadic logarithm of the Ki, by convention in mol/L. Low readings indicate a high Ki, high ones a low Ki.

The values above are taken from ChEMBL document CHEMBL3352705, “Anion inhibition study of the β-class carbonic anhydrase (PgiCAb) from the oral pathogen Porphyromonas gingivalis” (Bioorg Med Chem Lett, 2014).
